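All cell lines were grown in 96-well plates and treated with compound for 48 hours. GI50 marks 50% less growth.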 Active and inactive are the calls of the source. Cut-off read from the data, not from the text of the source: active = GI50 up to about 1.1 µM and inactive = higher.
Experiments:
Test in all cases: NCI anticancer screen, dose series, 48 h
[1] = test system: ACHN
[2] = test system: UACC-257
[3] = test system: UACC-62
[4] = test system: MOLT-4
[5] = test system: SF-539
[6] = test system: PC-3
[7] = test system: NCI-H23
[8] = test system: MDA-N
[9] = test system: COLO 205
[10] = test system: A549
[11] = test system: EKVX
[12] = test system: MDA-MB-231
[13] = test system: SN12C
[14] = test system: HOP-62
[15] = test system: HCC 2998
[16] = test system: HCT-15
[17] = test system: LOX IMVI
[18] = test system: M14
[19] = test system: OVCAR-3
[20] = test system: T47D
[21] = test system: SNB-19
[22] = test system: SK-MEL-5
[23] = test system: NCI-H460
[24] = test system: OVCAR-4
[25] = test system: NCI-H226
[26] = test system: HT-29
[27] = test system: SF-295
[28] = test system: TK-10
[29] = test system: SW-620
[30] = test system: DU-145
[31] = test system: U-251
[32] = test system: SF-268
[33] = test system: KM12
[34] = test system: NCI/ADR-RES
[35] = test system: K562
[36] = test system: MDA-MB-435
[37] = test system: A498
[38] = test system: SK-MEL-2
[39] = test system: 786-0
[40] = test system: CCRF-CEM
[41] = test system: SNB-75
[42] = test system: Hs-578T
[43] = test system: HCT-116
[44] = test system: IGROV-1
[45] = test system: SK-MEL-28
[46] = test system: SK-OV-3
[47] = test system: CAKI-1
[48] = test system: NCI-H522
[49] = test system: HOP-92
[50] = test system: OVCAR-8
[51] = test system: UO-31
[52] = test system: Malme-3M
[53] = test system: OVCAR-5
[54] = test system: HL-60
[55] = test system: RXF 393
[56] = test system: MCF7
[57] = test system: RPMI-8226

Measured: GI50

CCOC(=O)CNc1nc(=O)c2c(=O)oc(Cl)cc2o1
10 µM: [16]
inactive: [1] 13.5 µM | [2] 17.5 µM | [3] 18.2 µM | [4] 12.6 µM | [5] 6.79 µM | [6] 13.2 µM | [7] 19.1 µM | [8] 14.2 µM | [9] 16.7 µM | [10] 18.3 µM | [11] 16.1 µM | [12] 21.6 µM | [13] 18.4 µM | [14] 25.4 µM | [15] 15.6 µM | [17] 10.5 µM | [18] 17.9 µM | [19] 12.9 µM | [20] 18.9 µM | [21] 33.3 µM | [22] 27.1 µM | [23] 16.6 µM | [24] 17.6 µM | [25] > 100 µM | [26] 10.7 µM | [27] 25 µM | [28] 13.6 µM | [29] 8.81 µM | [30] 29 µM | [31] 24.8 µM | [32] 14.7 µM | [33] 22.1 µM | [34] 21.4 µM | [35] 6.25 µM | [36] 15.7 µM | [37] 17.5 µM | [38] 17.2 µM | [39] 10.2 µM | [40] 5.82 µM | [41] 11 µM | [42] 19.3 µM | [43] 12.1 µM | [44] 10.1 µM | [45] 22.9 µM | [46] > 100 µM | [47] 12.9 µM | [48] 2.7 µM | [49] 3.69 µM | [50] 11.2 µM | [51] 12.8 µM | [52] 11.4 µM | [53] 18.5 µM

CN(C)CCSC1=Nc2ccc(Cl)cc2C(c2ccccc2Cl)=NC1
inactive: [4] 33.3 µM | [54] 19.3 µM | [35] 20.5 µM | [36] 13.8 µM | [41] 18.2 µM | [42] 18.6 µM

Nc1ncnc2c1ncn2C1CCC(CP(=O)(O)O)C1 (stereo not drawn)
> 100 µM: [16]
inactive: [55] > 100 µM | [1] > 100 µM | [2] > 100 µM | [3] > 100 µM | [54] > 100 µM | [5] > 100 µM | [6] > 100 µM | [7] > 100 µM | [8] > 100 µM | [9] > 100 µM | [10] > 100 µM | [11] > 100 µM | [12] > 100 µM | [13] > 100 µM | [14] > 100 µM | [15] > 100 µM | [17] > 100 µM | [18] > 100 µM | [19] > 100 µM | [20] > 100 µM | [21] > 100 µM | [22] > 100 µM | [23] > 100 µM | [24] > 100 µM | [25] > 100 µM | [26] > 100 µM | [27] > 100 µM | [56] > 100 µM | [28] > 100 µM | [29] > 100 µM | [30] > 100 µM | [31] > 100 µM | [32] > 100 µM | [57] > 100 µM | [33] > 100 µM | [34] > 100 µM | [36] > 100 µM | [38] > 100 µM | [39] > 100 µM | [42] > 100 µM | [43] > 100 µM | [44] > 100 µM | [45] > 100 µM | [46] > 100 µM | [50] > 100 µM | [51] > 100 µM | [52] > 100 µM | [53] > 100 µM
